Assay results taken from ChEMBL document CHEMBL4673219, “Novel 5,6-disubstituted pyrrolo[2,3-d]pyrimidine derivatives as broad spectrum antiproliferative agents: Synthesis, cell based assays, kinase profile and molecular docking study” (Bioorg Med Chem, 2018).
Several values for one entry are separate records, joined by “and”; a condition that tells them apart may be missing. Equal values may be shown once.

How the values were obtained:
Assay type in all cases: functional
NCI-H322M = experiment: Growth inhibition of human NCI-H322M cells assessed as growth percentage at 0.01 uM incubated for 48 hrs by sulforhodamine B assay relative to control; details: read-out: Activity
HCT-15 = experiment: Growth inhibition of human HCT-15 cells assessed as growth percentage at 0.1 uM incubated for 48 hrs by sulforhodamine B assay relative to control; details: read-out: Activity
UO-31 [1] = experiment: Growth inhibition of human UO-31 cells assessed as growth percentage at 0.01 uM incubated for 48 hrs by sulforhodamine B assay relative to control; details: read-out: Activity
DU-145 [2] = experiment: Growth inhibition of human DU-145 cells incubated for 48 hrs by sulforhodamine B assay; details: for GI50 / TGI: DU-145
CCRF-CEM [3] = experiment: Growth inhibition of human CCRF-CEM cells assessed as growth percentage at 10 uM incubated for 48 hrs by sulforhodamine B assay relative to control; details: read-out: Activity
MDA-MB-435 = experiment: Growth inhibition of human MDA-MB-435 cells assessed as growth percentage at 0.1 uM incubated for 48 hrs by sulforhodamine B assay relative to control; details: read-out: Activity
MDA-MB-468 = experiment: Growth inhibition of human MDA-MB-468 cells assessed as growth percent at 0.1 uM incubated for 48 hrs by sulforhodamine B assay relative to control; details: read-out: Activity
HCT-116 [4] = experiment: Antiproliferative activity against human HCT-116 cells assessed as cell growth inhibition measured after 72 hrs by MTT assay
UACC-257 = experiment: Growth inhibition of human UACC-257 cells incubated for 48 hrs by sulforhodamine B assay
U-251 = experiment: Growth inhibition of human U-251 cells assessed as growth percentage at 100 uM incubated for 48 hrs by sulforhodamine B assay relative to control; details: read-out: Activity
UO-31 [5] = experiment: Growth inhibition of human UO-31 cells incubated for 48 hrs by sulforhodamine B assay
LOX IMVI = experiment: Growth inhibition of human LOX IMVI cells assessed as growth percentage at 1 uM incubated for 48 hrs by sulforhodamine B assay relative to control; details: read-out: Activity
A498 [6] = experiment: Growth inhibition of human A498 cells assessed as growth percentage at 100 uM incubated for 48 hrs by sulforhodamine B assay relative to control; details: read-out: Activity
HCT-116 [7] = experiment: Growth inhibition of human HCT-116 cells assessed as growth percentage at 1 uM incubated for 48 hrs by sulforhodamine B assay relative to control; details: read-out: Activity
SN12C = experiment: Growth inhibition of human SN12C cells assessed as growth percentage at 10 uM incubated for 48 hrs by sulforhodamine B assay relative to control; details: read-out: Activity
OVCAR-8 = experiment: Growth inhibition of human OVCAR-8 cells assessed as growth percentage at 100 uM incubated for 48 hrs by sulforhodamine B assay relative to control; details: read-out: Activity
OVCAR-5 = experiment: Growth inhibition of human OVCAR-5 cells incubated for 48 hrs by sulforhodamine B assay
SNB-75 = experiment: Growth inhibition of human SNB-75 cells assessed as growth percentage at 0.1 uM incubated for 48 hrs by sulforhodamine B assay relative to control; details: read-out: Activity
COLO 205 [8] = experiment: Growth inhibition of human COLO 205 cells assessed as growth percentage at 1 uM incubated for 48 hrs by sulforhodamine B assay relative to control; details: read-out: Activity
A549 [9] = experiment: Growth inhibition of human A549/ATCC cells assessed as growth percentage at 0.1 uM incubated for 48 hrs by sulforhodamine B assay relative to control; details: read-out: Activity
SK-OV-3 = experiment: Growth inhibition of human SK-OV-3 cells assessed as growth percentage at 0.1 uM incubated for 48 hrs by sulforhodamine B assay relative to control; details: read-out: Activity
RPMI-8226 [10] = experiment: Growth inhibition of human RPMI-8226 cells assessed as growth percentage at 1 uM incubated for 48 hrs by sulforhodamine B assay relative to control; details: read-out: Activity
SW-620 [11] = experiment: Growth inhibition of human SW-620 cells assessed as growth percentage at 0.1 uM incubated for 48 hrs by sulforhodamine B assay relative to control; details: read-out: Activity
RXF 393 = experiment: Growth inhibition of human RXF 393 cells assessed as growth percentage at 0.1 uM incubated for 48 hrs by sulforhodamine B assay relative to control; details: read-out: Activity
DU-145 [12] = experiment: Growth inhibition of human DU-145 cells assessed as growth percentage at 1 uM incubated for 48 hrs by sulforhodamine B assay relative to control; details: read-out: Activity
CAKI-1 [13] = experiment: Growth inhibition of human CAKI-1 cells incubated for 48 hrs by sulforhodamine B assay; details: for CC50: read-out: LC50 (the source's name); for GI50: CAKI-1
A498 [14] = experiment: Growth inhibition of human A498 cells assessed as growth percentage at 1 uM incubated for 48 hrs by sulforhodamine B assay relative to control; details: read-out: Activity
SW-620 [15] = experiment: Growth inhibition of human SW-620 cells incubated for 48 hrs by sulforhodamine B assay; details: for CC50: read-out: LC50 (the source's name)
HCC 2998 = experiment: Growth inhibition of human HCC 2998 cells assessed as growth percentage at 0.01 uM incubated for 48 hrs by sulforhodamine B assay relative to control; details: read-out: Activity
A549 [16] = experiment: Growth inhibition of human A549/ATCC cells assessed as growth percentage at 1 uM incubated for 48 hrs by sulforhodamine B assay relative to control; details: read-out: Activity
Malme-3M = experiment: Growth inhibition of human Malme-3M cells assessed as growth percentage at 1 uM incubated for 48 hrs by sulforhodamine B assay relative to control; details: read-out: Activity
COLO 205 [17] = experiment: Growth inhibition of human COLO 205 cells assessed as growth percentage at 0.1 uM incubated for 48 hrs by sulforhodamine B assay relative to control; details: read-out: Activity
NCI-H226 = experiment: Growth inhibition of human NCI-H226 cells assessed as growth percentage at 100 uM incubated for 48 hrs by sulforhodamine B assay relative to control; details: read-out: Activity
RPMI-8226 [18] = experiment: Growth inhibition of human RPMI-8226 cells assessed as growth percentage at 10 uM incubated for 48 hrs by sulforhodamine B assay relative to control; details: read-out: Activity
CAKI-1 [19] = experiment: Growth inhibition of human CAKI-1 cells assessed as growth percentage at 100 uM incubated for 48 hrs by sulforhodamine B assay relative to control; details: read-out: Activity
HOP-92 = experiment: Growth inhibition of human HOP-92 cells assessed as growth percentage at 0.1 uM incubated for 48 hrs by sulforhodamine B assay relative to control; details: read-out: Activity
CCRF-CEM [20] = experiment: Growth inhibition of human CCRF-CEM cells assessed as growth percentage at 0.1 uM incubated for 48 hrs by sulforhodamine B assay relative to control; details: read-out: Activity
Hs-578T = experiment: Growth inhibition of human Hs-578T cells assessed as growth percentage at 100 uM incubated for 48 hrs by sulforhodamine B assay relative to control; details: read-out: Activity
786-0 = experiment: Growth inhibition of human 786-0 cells assessed as growth percentage at 10 uM incubated for 48 hrs by sulforhodamine B assay relative to control; details: read-out: Activity

Nc1nc2[nH]c(CN3CCN(c4cc(Cl)cc(Cl)c4)CC3)c(CN3CCN(c4cc(Cl)cc(Cl)c4)CC3)c2c(=O)[nH]1
growth at 0.01 µM (NCI-H322M): 102% | growth at 0.1 µM (HCT-15): 95% | growth at 0.01 µM (UO-31 [1]): 96% | GI50 (DU-145 [2]): 1920 nM | TGI (DU-145 [2]): 3460 nM | CC50 (DU-145 [2]; DU-145, 48 h, read-out: LC50 (the source's name)): 6240 nM | growth at 10 µM (CCRF-CEM [3]): 45.1% | growth at 0.1 µM (MDA-MB-435): 97% | growth at 0.1 µM (MDA-MB-468): 94% | GI50 (HCT-116 [4]): 2890 nM | GI50 (UACC-257; Homo sapiens, UACC-257, 48 h): 2060 nM | TGI (UACC-257; Homo sapiens, UACC-257, 48 h): 4760 nM | growth at 100 µM (U-251): -50% | GI50 (UO-31 [5]; 48 h): 1170 nM and 11700 nM | TGI (UO-31 [5]; 48 h): 31800 nM and 3180 nM | growth at 1 µM (LOX IMVI): 104% | growth at 100 µM (A498 [6]): -72% | growth at 1 µM (HCT-116 [7]): 87% | growth at 10 µM (SN12C): 73.1% | growth at 100 µM (OVCAR-8): -44% | GI50 (OVCAR-5): 2640 nM | TGI (OVCAR-5): 9270 nM | growth at 0.1 µM (SNB-75): 89% | growth at 1 µM (COLO 205 [8]): 85% | growth at 0.1 µM (A549 [9]): 94% | growth at 0.1 µM (SK-OV-3): 103% | growth at 1 µM (RPMI-8226 [10]): 92% | growth at 0.1 µM (SW-620 [11]): 94% | growth at 0.1 µM (RXF 393): 89% | growth at 1 µM (DU-145 [12]): 105% | TGI (CAKI-1 [13]; 48 h): 18000 nM and 1800 nM | CC50 (CAKI-1 [13]; 48 h): 43700 nM and 4370 nM | GI50 (CAKI-1 [13]; Homo sapiens): 5100 nM | growth at 1 µM (A498 [14]): 75% | GI50 (SW-620 [15]; Homo sapiens, SW-620, 48 h): 1720 nM | TGI (SW-620 [15]; Homo sapiens, SW-620, 48 h): 3500 nM | CC50 (SW-620 [15]; Homo sapiens, SW-620, 48 h): 7120 nM | growth at 0.01 µM (HCC 2998): 106% | growth at 1 µM (A549 [16]): 92% | growth at 1 µM (Malme-3M): 101% | growth at 0.1 µM (COLO 205 [17]): 101% | growth at 100 µM (NCI-H226): -25% | growth at 10 µM (RPMI-8226 [18]): 38.4% | growth at 100 µM (CAKI-1 [19]): -97% | growth at 0.1 µM (HOP-92): 73% | growth at 0.1 µM (CCRF-CEM [20]): 98% | growth at 100 µM (Hs-578T): -25% | growth at 10 µM (786-0): 72.6%

CCCCCCCC(=O)Nc1nc2[nH]c(CN3CCN(Cc4cccc(F)c4)CC3)c(CN3CCN(Cc4cccc(F)c4)CC3)c2c(=O)[nH]1
growth at 0.01 µM (NCI-H322M): 94% | growth at 0.1 µM (HCT-15): 94% | growth at 0.01 µM (UO-31 [1]): 77% | GI50 (DU-145 [2]): 1100 nM | TGI (DU-145 [2]): 2420 nM | growth at 10 µM (CCRF-CEM [3]): -25.8% | growth at 0.1 µM (MDA-MB-435): 90% | growth at 0.1 µM (MDA-MB-468): 95% | GI50 (HCT-116 [4]): 2250 nM | GI50 (UACC-257; 48 h): 200 nM | TGI (UACC-257; 48 h): 460 nM | GI50 (UACC-257; Homo sapiens, UACC-257, 48 h): 203 nM | LC50 (concentration killing 50% of cells) (UACC-257; Homo sapiens, UACC-257, 48 h): 1090 nM | TGI (UACC-257; Homo sapiens, UACC-257, 48 h): 456 nM | growth at 100 µM (U-251): -95% | GI50 (UO-31 [5]; 48 h): 3800 nM and 380 nM | LC50 (concentration killing 50% of cells) (UO-31 [5]; Homo sapiens, UO-31): 4810 nM | TGI (UO-31 [5]; Homo sapiens, UO-31, 48 h): 1700 nM | growth at 1 µM (LOX IMVI): -58% | growth at 100 µM (A498 [6]): -98% | growth at 1 µM (HCT-116 [7]): -91% | growth at 10 µM (SN12C): -90.6% | growth at 100 µM (OVCAR-8): -81% | GI50 (OVCAR-5): 2640 nM | TGI (OVCAR-5): 9270 nM | growth at 0.1 µM (SNB-75): 82% | growth at 1 µM (COLO 205 [8]): 74% | growth at 0.1 µM (A549 [9]): 98% | growth at 0.1 µM (SK-OV-3): 94% | growth at 1 µM (RPMI-8226 [10]): 13% | growth at 0.1 µM (SW-620 [11]): 97% | growth at 0.1 µM (RXF 393): 100% | growth at 1 µM (DU-145 [12]): 56% | GI50 (CAKI-1 [13]; Homo sapiens): 1320 nM | TGI (CAKI-1 [13]; Homo sapiens, CAKI-1, 48 h): 2610 nM | CC50 (CAKI-1 [13]; Homo sapiens, CAKI-1, 48 h): 5180 nM | growth at 1 µM (A498 [14]): 66% | GI50 (SW-620 [15]; 48 h): 190 nM | TGI (SW-620 [15]; 48 h): 380 nM | CC50 (SW-620 [15]; 48 h): 740 nM | GI50 (SW-620 [15]; Homo sapiens, SW-620, 48 h): 191 nM | TGI (SW-620 [15]; Homo sapiens, SW-620, 48 h): 377 nM | CC50 (SW-620 [15]; Homo sapiens, SW-620, 48 h): 744 nM | growth at 0.01 µM (HCC 2998): 99% | growth at 1 µM (A549 [16]): 8% | growth at 1 µM (Malme-3M): 40% | growth at 0.1 µM (COLO 205 [17]): 92% | growth at 100 µM (NCI-H226): -94% | growth at 10 µM (RPMI-8226 [18]): -47.3% | growth at 100 µM (CAKI-1 [19]): -96% | growth at 0.1 µM (HOP-92): 86% | growth at 0.1 µM (CCRF-CEM [20]): 94% | growth at 100 µM (Hs-578T): -40% | growth at 10 µM (786-0): -100%
